Data: US11130756B2, “[1,2,4]Triazolo[4,3-A]pyridinyl substituted indole compounds” (BRISTOL-MYERS SQUIBB COMPANY, priority 2017, dated 2021)

Legend:
Type in all cases: cell-based
human TLR9 = target: T1, human TLR9 (Homo sapiens, UniProt Q9NR96); assay: TLR9 inhibition reporter assay (HEK-Blue, SEAP); conditions: HEK-Blue cells overexpressing human TLR9, ODN2006 5 nM, 22 hour incubation
T1 construct: host or cells: HEK-Blue cells
T1 sequence (Q9NR96 26-1032): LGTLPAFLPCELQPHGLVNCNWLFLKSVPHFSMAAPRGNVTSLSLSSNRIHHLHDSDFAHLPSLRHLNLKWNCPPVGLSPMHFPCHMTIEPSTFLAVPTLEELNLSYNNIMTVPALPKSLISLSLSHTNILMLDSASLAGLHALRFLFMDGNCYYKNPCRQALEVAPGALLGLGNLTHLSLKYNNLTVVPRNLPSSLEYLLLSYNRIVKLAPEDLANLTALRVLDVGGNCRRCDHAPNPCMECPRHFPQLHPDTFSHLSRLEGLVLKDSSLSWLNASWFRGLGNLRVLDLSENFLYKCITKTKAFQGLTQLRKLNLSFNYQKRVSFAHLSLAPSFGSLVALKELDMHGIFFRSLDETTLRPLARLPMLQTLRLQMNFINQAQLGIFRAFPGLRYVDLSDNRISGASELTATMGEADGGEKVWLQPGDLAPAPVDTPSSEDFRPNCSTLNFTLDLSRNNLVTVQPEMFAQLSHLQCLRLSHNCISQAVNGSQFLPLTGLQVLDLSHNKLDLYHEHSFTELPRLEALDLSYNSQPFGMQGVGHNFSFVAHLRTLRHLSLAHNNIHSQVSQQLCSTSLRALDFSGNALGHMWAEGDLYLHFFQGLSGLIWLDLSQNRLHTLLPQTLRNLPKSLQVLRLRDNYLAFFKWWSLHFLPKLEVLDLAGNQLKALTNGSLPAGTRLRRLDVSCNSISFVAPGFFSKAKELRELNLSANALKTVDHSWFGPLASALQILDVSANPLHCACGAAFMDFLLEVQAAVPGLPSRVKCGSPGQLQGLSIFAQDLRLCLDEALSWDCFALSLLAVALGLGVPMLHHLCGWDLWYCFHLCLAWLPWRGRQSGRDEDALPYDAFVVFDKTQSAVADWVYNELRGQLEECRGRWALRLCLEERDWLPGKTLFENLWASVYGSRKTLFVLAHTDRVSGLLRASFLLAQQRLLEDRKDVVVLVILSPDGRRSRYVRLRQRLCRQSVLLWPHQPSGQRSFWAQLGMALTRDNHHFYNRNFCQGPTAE
Outline: (§1)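 Human TLR7/8/9 HEK-Blue reporter lines; dose range 0.05 nM–50 μM; 30 min RT preincubation; stimulus gardiquimod 7.5 μM / R848 15.9 μM / ODN2006 5 nM respectively; 22 h, 37 °C; SEAP detected colorimetrically.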

human TLR8 = target: T2, human TLR8 (Homo sapiens, UniProt Q9NR97); assay: TLR8 inhibition reporter assay (HEK-Blue, SEAP); conditions: HEK-Blue cells overexpressing human TLR8, R848 15.9 μM, 22 hour incubation
T2 construct: host or cells: HEK-Blue cells
T2 sequence (Q9NR97 27-1041): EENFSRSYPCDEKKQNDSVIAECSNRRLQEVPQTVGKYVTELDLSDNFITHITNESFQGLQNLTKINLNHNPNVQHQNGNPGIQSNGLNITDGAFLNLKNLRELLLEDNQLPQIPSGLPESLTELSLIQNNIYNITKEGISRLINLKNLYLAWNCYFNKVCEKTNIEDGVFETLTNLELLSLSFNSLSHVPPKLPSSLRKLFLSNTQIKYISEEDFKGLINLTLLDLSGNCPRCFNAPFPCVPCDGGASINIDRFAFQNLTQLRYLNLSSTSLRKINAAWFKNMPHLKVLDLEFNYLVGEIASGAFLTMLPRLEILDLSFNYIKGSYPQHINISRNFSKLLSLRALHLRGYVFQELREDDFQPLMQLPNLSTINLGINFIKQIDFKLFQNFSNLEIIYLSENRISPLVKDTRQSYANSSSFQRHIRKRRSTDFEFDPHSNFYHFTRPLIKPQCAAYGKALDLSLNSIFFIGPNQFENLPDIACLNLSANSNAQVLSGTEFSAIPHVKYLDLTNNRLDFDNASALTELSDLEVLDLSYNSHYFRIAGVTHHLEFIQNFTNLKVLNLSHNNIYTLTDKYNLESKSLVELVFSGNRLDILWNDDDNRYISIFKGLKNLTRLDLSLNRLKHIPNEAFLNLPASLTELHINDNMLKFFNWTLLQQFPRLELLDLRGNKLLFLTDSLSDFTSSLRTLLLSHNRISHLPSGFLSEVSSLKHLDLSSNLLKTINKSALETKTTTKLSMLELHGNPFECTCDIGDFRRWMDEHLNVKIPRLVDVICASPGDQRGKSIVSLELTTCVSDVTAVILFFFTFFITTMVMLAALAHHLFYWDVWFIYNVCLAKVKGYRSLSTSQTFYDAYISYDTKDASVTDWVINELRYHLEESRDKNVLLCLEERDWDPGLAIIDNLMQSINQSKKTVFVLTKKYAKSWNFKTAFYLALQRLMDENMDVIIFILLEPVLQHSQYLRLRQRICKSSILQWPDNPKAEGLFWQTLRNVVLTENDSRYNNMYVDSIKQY
Outline: as §1

human TLR7 = target: T3, human TLR7 (Homo sapiens, UniProt Q9NYK1); assay: TLR7 inhibition reporter assay (HEK-Blue, SEAP); conditions: HEK-Blue cells overexpressing human TLR7, gardiquimod 7.5 μM, 22 hour incubation
T3 construct: host or cells: HEK-Blue cells
T3 sequence (Q9NYK1 27-1049): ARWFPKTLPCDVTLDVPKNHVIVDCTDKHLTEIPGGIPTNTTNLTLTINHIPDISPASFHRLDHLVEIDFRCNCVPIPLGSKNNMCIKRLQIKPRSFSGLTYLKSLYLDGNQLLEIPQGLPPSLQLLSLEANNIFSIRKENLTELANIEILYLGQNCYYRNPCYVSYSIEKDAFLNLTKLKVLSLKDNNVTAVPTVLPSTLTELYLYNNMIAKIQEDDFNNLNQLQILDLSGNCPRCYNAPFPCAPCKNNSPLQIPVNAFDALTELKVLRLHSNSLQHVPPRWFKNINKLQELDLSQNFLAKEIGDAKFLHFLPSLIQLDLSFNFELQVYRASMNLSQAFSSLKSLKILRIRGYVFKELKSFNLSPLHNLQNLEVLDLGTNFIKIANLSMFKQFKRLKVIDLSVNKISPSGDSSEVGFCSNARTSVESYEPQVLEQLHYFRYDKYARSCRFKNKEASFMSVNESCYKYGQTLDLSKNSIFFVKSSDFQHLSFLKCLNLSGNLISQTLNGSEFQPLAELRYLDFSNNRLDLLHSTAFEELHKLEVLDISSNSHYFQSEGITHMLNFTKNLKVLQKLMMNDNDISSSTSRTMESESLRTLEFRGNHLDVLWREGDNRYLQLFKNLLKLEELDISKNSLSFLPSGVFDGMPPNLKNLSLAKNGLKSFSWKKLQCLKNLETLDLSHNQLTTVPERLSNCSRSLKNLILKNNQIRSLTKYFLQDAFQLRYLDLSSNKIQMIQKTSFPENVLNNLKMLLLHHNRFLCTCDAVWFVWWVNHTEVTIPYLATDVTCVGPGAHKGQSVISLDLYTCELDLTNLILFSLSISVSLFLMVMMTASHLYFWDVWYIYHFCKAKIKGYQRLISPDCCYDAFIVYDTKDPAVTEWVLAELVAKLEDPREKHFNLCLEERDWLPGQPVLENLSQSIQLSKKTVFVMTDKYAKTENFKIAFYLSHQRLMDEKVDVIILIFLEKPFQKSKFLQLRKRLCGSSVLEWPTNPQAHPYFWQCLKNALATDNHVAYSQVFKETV
Outline: as §1

Row | SMILES | IC50 (human TLR9) [nM] | IC50 (human TLR8) [nM] | IC50 (human TLR7) [nM]
1 | Cc1c(-c2[nH]c3ccc(C4CCN(C5COC5)CC4)cc3c2C(C)C)cn2cnnc2c1Cl [Example 82, 8-chloro-6-(3-isopropyl-5-(1-(oxetan-3-yl)piperidin-4-yl)-1H-indol-2-yl)-7-methyl-[1,2,4] triazolo[4,3-a]pyridine] | ≥ 50000 | 153 | 4.9
2 | Cc1c(-c2[nH]c3ccc(C4CCN(CCS(C)(=O)=O)CC4)cc3c2C(C)C)cn2cnnc2c1C [Example 43, 6-(3-isopropyl-5-(1-(2-(methylsulfonyl)ethyl)piperidin-4-yl)-1H-indol-2-yl)-7,8-dimethyl-[1,2,4]triazolo[4,3-a]pyridine] | 6610 | 3.2 | 1.8
3 | Cc1c(-c2[nH]c3ccc(C4CCN(CC5(C)COC5)CC4)cc3c2C(C)C)cn2cnnc2c1C [Example 79, 6-(3-isopropyl-5-(1-((3-methyloxetan-3-yl)methyl)piperidin-4-yl)-1H-indol-2-yl)-7,8-dimethyl-[1,2,4]triazolo[4,3-a]pyridine] | 3530 | 2 | 1.1
4 | COCc1nnc2ccc(-c3[nH]c4ccc(C5CCNCC5)cc4c3C(C)C)cn12 [Example 7, 6-(3-isopropyl-5-(piperidin-4-yl)-1H-indol-2-yl)-3-(methoxymethyl)-[1,2,4]triazolo[4,3-a]pyridine] | 3230 | 1230 | 156
5 | COCc1nnc2ccc(-c3[nH]c4ccc(C5CCN(CC(=O)N(C)C)CC5)cc4c3C(C)C)cn12 [Example 38, 2-(4-(3-isopropyl-2-(3-(methoxymethyl)-[1,2,4]triazolo[4,3-a]pyridin-6-yl)-1H-indol-5-yl)piperidin-1-yl)-N,N-dimethylacetamide] | 3120 | 402 | 281
6 | Cc1cc(-c2[nH]c3ccc(C4CCN(C5COC5)CC4)cc3c2C(C)C)cn2c(C)nnc12 [Example 72, 6-(3-isopropyl-5-(1-(oxetan-3-yl)piperidin-4-yl)-1H-indol-2-yl)-3,8-dimethyl-[1,2,4]triazolo[4,3-a]pyridine] | 7870 | 11.7 | 11.8
7 | CNC(=O)CN1CCC(c2ccc3[nH]c(-c4cn5cnnc5cc4C)c(C(C)C)c3c2)CC1 [Example 15, 2-(4-(3-isopropyl-2-(7-methyl-[1,2,4]triazolo[4,3-a]pyridin-6-yl)-1H-indol-5-yl)piperidin-1-yl)-N-methylacetamide] | 1100 | 245 | 15
8 | Cc1c(-c2[nH]c3ccc(C4C[C@H]5CC[C@@H](C4)N5CC(=O)N(C)C)cc3c2C(C)C)cn2cnnc2c1C (single isomer, unassigned) [Example 118] | 5460 | 159 | 8.7
9 | COc1ncc(CN2CCC(c3ccc4[nH]c(-c5cn6cnnc6c(C)c5C)c(C(C)C)c4c3)CC2)cn1 [Example 89, 6-(3-isopropyl-5-(1-((2-methoxypyrimidin-5-yl)methyl)piperidin-4-yl)-1H-indol-2-yl)-7,8-dimethyl-[1,2,4]triazolo[4,3-a]pyridine] | 773 | 3.3 | 0.1
10 | COc1cc(-c2[nH]c3ccc(C4CCN(C5COC5)CC4)cc3c2C(C)C)cn2cnnc12 [Example 86, 6-(3-isopropyl-5-(1-(oxetan-3-yl)piperidin-4-yl)-1H-indol-2-yl)-8-methoxy-[1,2,4]triazolo[4,3-a]pyridine] | 6200 | 26.8 | 1.2
11 | Cc1c(-c2[nH]c3ccc(C4CCN(Cc5ncn(C)n5)CC4)cc3c2C(C)C)cn2cnnc2c1C [Example 45, 6-(3-isopropyl-5-(1-((1-methyl-1H-1,2,4-triazol-3-yl)methyl)piperidin-4-yl)-1H-indol-2-yl)-7,8-dimethyl-[1,2,4]triazolo[4,3-a]pyridine] | 2310 | 8.1 | 3.2
12 | Cc1c(-c2[nH]c3ccc(C4C[C@H]5CC[C@@H](C4)N5C4COC4)cc3c2C(C)C)cn2cnnc2c1C (single isomer, unassigned) [Example 123] | 8480 | 151 | 7.6
13 | Cc1c(-c2[nH]c3ccc(C4CCN(C5CC(C)OC(C)C5)CC4)cc3c2C(C)C)cn2cnnc2c1C (stereo not drawn) [Example 87, 6-(5-(1-(2,6-dimethyltetrahydro-2H-pyran-4-yl)piperidin-4-yl)-3-isopropyl-1H-indol-2-yl)-7,8-dimethyl-[1,2,4]triazolo[4,3-a]pyridine] | 1300 | 12.8 | 2.4
14 | CC(C)c1c(-c2ccc3nncn3c2)[nH]c2ccc(C3CCN(C4COC4)CC3)cc12 [Example 65, 6-(3-isopropyl-5-(1-(oxetan-3-yl)piperidin-4-yl)-1H-indol-2-yl)-[1,2,4]triazolo[4,3-a]pyridine] | 15100 | 341 | 21.8
